How the values were obtained:
hmGluR5 [1] = molecular target: T1, hmGluR5 (Homo sapiens (Human), UniProt P41594); experiment: Radioligand binding assay (MPEP binding site); settings: radioligand binding to the MPEP site, 5 nM radioligand; Ki by Cheng-Prusoff
Description: Binding assays were performed as described in [J. A. O'Brien et al. Mol. Pharmacol., 2003, 64, 731-740] with slight modifications, including that a radioligand that binds to the […] (MPEP) binding site was used in place of [^3H]-MPEP. Briefly, after thawing, the membrane homogenates were resuspended in 50 mM Tris-HCl and 0.9% NaCl binding buffer at pH 7.4 to a final assay concentration of 20 μg is protein/well for radioligand filtration binding. Incubations included 5 nM radioligand, membranes and either buffer or varying concentrations of compound. Samples were incubated for 60 min at room temperature with shaking. Non-specific binding was defined with 10 μM cold MPEP when using the radioligand. After incubation, samples were filtered over a GF/C filter (presoaked in 0.25% polyethyleneimine (PEI)) and then washed 4 times using a Tomtec® Harvester 96® Mach III cell harvester (Tomtec, Hamden, Conn.) with 0.5 mL ice-cold 50 mM Tris-HCl (pH 7.4). IC50 values were derived from the inhibition curve and Ki values were calculated according to the Cheng and Prusoff equation of Ki=IC50/(1+[L]/Kd) described in [Y. Cheng and W. H. Prusoff Biochem. Pharmacol. 1973, 22, 3099-3108] where [L] is the concentration of radioligand and Kd is its dissociation constant at the receptor, derived from the saturation isotherm. The Ki values of compounds of the invention were <10 μM.

hmGluR5 [2] = molecular target: T1, hmGluR5; experiment: Calcium mobilization assay (FLIPR), negative allosteric activity, EC80 glutamate; type: cell-based; settings: HEK 293 cells expressing hmGluR5; for Emax: HEK293, FLIPR maximum inhibition of EC80 glutamate response, read-out: hmGlu5 FLIPR % inhibition; for IC50: inhibition of EC80 glutamate response
Description: The cDNA for rat metabotropic glutamate receptor 5 (rmGluR5) and the cDNA for human metabotropic glutamate receptor 5 […] gifts from S. Nakanishi (Kyoto University, Kyoto, Japan). […] Twenty-four hours prior to assay, cells were seeded into 384-well black wall microtiter plates coated with poly-D-lysine. […] After excess dye was discarded, cells were washed in assay buffer and layered with a final volume equal to 30 μL/well. […] Laser excitation energy was adjusted so that basal fluorescence readings were approximately 10,000 relative fluorescent units. […] Basal readings derived from negative controls were subtracted from all samples. Maximum change in fluorescence was calculated for each well. Concentration-response curves derived from the maximum change in fluorescence were analyzed by nonlinear regression (Hill equation). A negative modulator can be identified from these concentration-response curves if a compound produces a concentration dependent inhibition of the EC80 glutamate response.

T1 sequence (P41594 21-1212): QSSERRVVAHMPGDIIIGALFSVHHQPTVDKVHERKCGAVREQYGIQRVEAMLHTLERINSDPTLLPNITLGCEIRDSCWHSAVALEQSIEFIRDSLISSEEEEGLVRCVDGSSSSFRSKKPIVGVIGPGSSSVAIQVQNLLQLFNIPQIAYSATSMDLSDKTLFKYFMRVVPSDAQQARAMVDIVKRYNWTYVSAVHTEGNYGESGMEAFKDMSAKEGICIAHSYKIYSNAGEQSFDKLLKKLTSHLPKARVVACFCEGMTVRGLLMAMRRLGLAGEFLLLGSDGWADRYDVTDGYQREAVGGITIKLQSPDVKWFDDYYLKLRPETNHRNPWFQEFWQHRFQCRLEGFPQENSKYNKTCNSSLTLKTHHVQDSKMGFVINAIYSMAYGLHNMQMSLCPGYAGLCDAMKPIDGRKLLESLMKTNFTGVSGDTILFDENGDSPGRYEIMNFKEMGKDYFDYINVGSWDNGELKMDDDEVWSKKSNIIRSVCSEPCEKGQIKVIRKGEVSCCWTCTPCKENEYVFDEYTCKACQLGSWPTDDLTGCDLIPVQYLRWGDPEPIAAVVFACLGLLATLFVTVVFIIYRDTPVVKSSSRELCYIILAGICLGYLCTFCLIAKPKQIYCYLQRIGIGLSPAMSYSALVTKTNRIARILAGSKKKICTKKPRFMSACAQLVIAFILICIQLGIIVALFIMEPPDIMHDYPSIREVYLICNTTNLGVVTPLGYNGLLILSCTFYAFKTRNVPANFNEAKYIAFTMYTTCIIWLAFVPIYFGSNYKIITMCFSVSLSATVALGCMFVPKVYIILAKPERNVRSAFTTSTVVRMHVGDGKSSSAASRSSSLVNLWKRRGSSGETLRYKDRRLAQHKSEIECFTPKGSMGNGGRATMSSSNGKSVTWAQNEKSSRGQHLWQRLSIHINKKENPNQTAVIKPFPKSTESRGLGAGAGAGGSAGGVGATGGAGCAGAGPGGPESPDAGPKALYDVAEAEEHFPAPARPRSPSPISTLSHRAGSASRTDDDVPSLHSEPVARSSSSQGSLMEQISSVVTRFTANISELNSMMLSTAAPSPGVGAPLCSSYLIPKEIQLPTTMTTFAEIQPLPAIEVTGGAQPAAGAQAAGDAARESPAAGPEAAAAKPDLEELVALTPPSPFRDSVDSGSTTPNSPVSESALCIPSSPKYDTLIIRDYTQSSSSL

SMILES | Ki (hmGluR5 [1]) [nM] | Emax (hmGluR5 [2]) [%] | IC50 (hmGluR5 [2]) [nM]
Cc1cccc(C(=O)NC23CCCC(NC(=O)c4cccc(Cl)c4)(CC2)C3)n1 (stereo not drawn) [Example 2, N-(5-(3-chlorobenzamido)bicyclo[3.2.1]octan-1-yl)-6-methylpicolinamide] | 27 | 89 | 3.7
Cc1cncc(C(=O)NC23CCCC(NC(=O)c4cccc(F)c4)(CC2)C3)n1 (stereo not drawn) [Example 6, 6-Methyl-pyrazine-2-carboxylic acid [5-(3-fluoro-benzoylamino)-bicyclo[3.2.1]oct-1-yl]-amide] | 78 | 92 | 9
Cc1ncc(C(=O)NC23CCCC(NC(=O)c4cccc(Cl)c4)(CC2)C3)s1 (stereo not drawn) [Example 15, N-(5-(3-chlorobenzamido)bicyclo[3.2.1]octan-1-yl)-2-methylthiazole-5-carboxamide] | 340 | 88 | 26
Cc1cccc(C(=O)NC23CCCC(NC(=O)c4ccncc4)(CC2)C3)c1 (stereo not drawn) [Example 36, N-(5-(3-methylbenzamido)bicyclo[3.2.1]octan-1-yl)isonicotinamide] | 280 | 87 | 35
Cc1cccc(C(=O)N[C@@]23CCC[C@@](NC(=O)c4ccccn4)(CC2)C3)n1 [Example 126, 6-Methyl-pyridine-2-carboxylic acid {(1S,5R)-5-[(pyridine-2-carbonyl)-amino]-bicyclo[3.2.1]oct-1-yl}-amide] | 39 | 86 | 0.32
Cc1cncc(C(=O)N[C@]23CCC[C@](NC(=O)c4cccc(F)c4)(CC2)C3)n1 [Example 160, 6-Methyl-pyrazine-2-carboxylic acid [(1R,5S)-5-(3-fluoro-benzoylamino)-bicyclo[3.2.1]oct-1-yl]-amide] | 35 | 89 | 3.9
Cc1cncc(C(=O)N[C@@]23CCC[C@@](NC(=O)c4cccc(F)c4)(CC2)C3)n1 [Example 161, 6-Methyl-pyrazine-2-carboxylic acid [(1S,5R)-5-(3-fluoro-benzoylamino)-bicyclo[3.2.1]oct-1-yl]-amide] | 1200 | 90 | 134
Cc1cccc(NC(=O)C23CCCC(NC(=O)c4nc(C)cs4)(CC2)C3)n1 (stereo not drawn) [Example 171, 4-methyl-N-(5-(6-methylpyridin-2-ylcarbamoyl)bicyclo[3.2.1]octan-1-yl)thiazole-2-carboxamide] | 65 | 94 | 4.7
Cc1cccc(NC(=O)C23CCCC(NC(=O)c4cccc(Cl)c4)(CC2)C3)n1 (stereo not drawn) [Example 176, 5-(3-chlorobenzamido)-N-(6-methylpyridin-2-yl)bicyclo[3.2.1]octane-1-carboxamide] | 500 | 91 | 33
Cc1cccc(C(=O)NC23CCCC(C(=O)Nc4ccnc(C)n4)(CC2)C3)n1 (stereo not drawn) [Example 178, 6-methyl-N-(5-(2-methylpyrimidin-4-ylcarbamoyl)bicyclo[3.2.1]octan-1-yl)picolinamide] | 370 | 90 | 38
